One test addresses human Cat L (Homo sapiens (Human), UniProt P07711). Nature of the test: Cathepsin enzyme inhibition assay (human Cat L). It is filed as biochemical. The conditions noted are these: enzyme 1 nM, substrate Z-Val-Val-Arg-AMC 20 μM. How it is done: (§1) Cathepsin Enzyme Inhibition Assay
(§2) Enzyme activity is measured by observing the increase in fluorescence intensity caused by cleavage of a peptide substrate containing a fluorophore whose emission is quenched in the intact peptide.
(§3) Assay buffer: 100 mM potassium phosphate pH 6.5, EDTA-Na 5 mM, Triton X-100 0.001%, DTT 5 mM.
(§4) Enzymes (all at 1 nM): human and mouse Cathepsin S, Cat K, Cat B, Cat L.
(§5) Substrate (20 μM): Z-Val-Val-Arg-AMC, except for Cat K which uses Z-Leu-Arg-AMC (both from Bachem).
Excitation 360 nm, Emission 465 nm.
Enzyme is added to the substance dilutions in 96-well microtitre plates and the reaction is started with substrate. Fluorescence emission is measured over 20 minutes, during which time a linear increase is observed in the absence of inhibitor. IC50 are calculated by standard methods.
Inhibition of human Cat S, mouse Cat S, human Cat K, human Cat B, human Cat L and mouse Cat L have been measured separately. The results obtained for human Cat S and L for representative compounds of the invention are expressed in the following table in μM.

For another test, the target named is human Cat S (Homo sapiens (Human), UniProt P25774). Nature of the test: Cathepsin enzyme inhibition assay (human Cat S). It is filed as biochemical. The conditions noted are these: enzyme 1 nM, substrate Z-Val-Val-Arg-AMC 20 μM. Here is the method:
as §1, §2, §3, §4, §5
Enzyme is added to the substance dilutions in 96-well microtitre plates and the reaction is started with substrate. […] IC50 are calculated by standard methods.
Inhibition of human Cat S, mouse Cat S, human Cat K, human Cat B, human Cat L and mouse Cat L have been measured separately.

Where a name gives a salt, the structure may show the parent alone.

We go through seven molecules from US8822505B2, “Azetidine derivatives” (Hoffmann-La Roche Inc., priority 2012, dated 2014).

As a reminder, the IC50 is the concentration needed to halve the response being measured. Lower therefore signals higher potency.

Sequence of human Cat L (P07711 114-333): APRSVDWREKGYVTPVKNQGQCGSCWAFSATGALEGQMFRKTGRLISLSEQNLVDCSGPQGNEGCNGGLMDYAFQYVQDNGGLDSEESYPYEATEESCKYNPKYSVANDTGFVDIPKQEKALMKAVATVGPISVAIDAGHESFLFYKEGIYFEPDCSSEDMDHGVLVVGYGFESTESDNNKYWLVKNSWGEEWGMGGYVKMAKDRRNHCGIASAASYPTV
Sequence of human Cat S (P25774 115-331): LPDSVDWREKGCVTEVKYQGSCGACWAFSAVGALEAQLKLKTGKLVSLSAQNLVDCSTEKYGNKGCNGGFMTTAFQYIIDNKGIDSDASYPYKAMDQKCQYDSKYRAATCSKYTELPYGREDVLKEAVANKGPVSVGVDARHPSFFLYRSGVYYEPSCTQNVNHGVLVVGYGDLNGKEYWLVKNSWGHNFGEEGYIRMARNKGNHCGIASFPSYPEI

Take `C[C@H](Oc1ccc(S(=O)(=O)[C@@H]2C[C@@H](C(=O)NC3(C#N)CC3)N(C(=O)C3(c4ncc(Cl)cc4F)CCN3)C2)c(Cl)c1)C(F)(F)F` (stereo partly drawn) [Example 37, (2S,4R)-1-[2-(5-Chloro-3-fluoro-pyridin-2-yl)-azetidine-2-carbonyl]-4-[2-chloro-4-((S)-2,2,2-trifluoro-1-methyl-ethoxy)-benzenesulfonyl]-pyrrolidine-2-carboxylic acid (1-cyano-cyclopropyl)-amide hydrochloride]: the IC50 amounted to 58.5 nM on human Cat L (pH 6.5, hydrochloride) and 3.83 nM against human Cat S (pH 6.5, hydrochloride).

On to `C[C@H](Oc1ccc(S(=O)(=O)[C@@H]2C[C@@H](C(=O)NC3(C#N)CC3)N(C(=O)C3(c4ncc(Cl)cc4F)CCN3)C2)c(Cl)c1)C(F)(F)F` (stereo partly drawn) [Example 38, (2S,4R)-1-[2-(5-Chloro-3-fluoro-pyridin-2-yl)-azetidine-2-carbonyl]-4-[2-chloro-4-((S)-2,2,2-trifluoro-1-methyl-ethoxy)-benzenesulfonyl]-pyrrolidine-2-carboxylic acid (1-cyano-cyclopropyl)-amide hydrochloride], for which the IC50 turned out to be 317 nM against human Cat L (pH 6.5, hydrochloride) and 4.16 nM at human Cat S (pH 6.5, hydrochloride).

For `C[C@H](Oc1ccc(S(=O)(=O)[C@@H]2C[C@@H](C(=O)NC3(C#N)CC3)N(C(=O)C3(c4ncc(Br)cc4F)CCN3)C2)c(Cl)c1)C(F)(F)F` (stereo partly drawn) [Example 39, (2S,4R)-1-[2-(5-Bromo-3-fluoro-pyridin-2-yl)-azetidine-2-carbonyl]-4-[2-chloro-4-((S)-2,2,2-trifluoro-1-methyl-ethoxy)-benzenesulfonyl]-pyrrolidine-2-carboxylic acid (1-cyano-cyclopropyl)-amide hydrochloride], the values for the half-inhibitory concentration (IC50) against human Cat L (pH 6.5) and at human Cat S (pH 6.5) were 26.9 nM and 5.46 nM, respectively.

With `Cc1cc(-c2ccc(S(=O)(=O)[C@@H]3C[C@@H](C(=O)NC4(C#N)CC4)N(C(=O)C4(c5ncc(Br)cc5F)CCN4C(=O)OC(C)(C)C)C3)c(Cl)c2)ccn1` (stereo partly drawn) [Example 42, 2-(5-Bromo-3-fluoro-pyridin-2-yl)-2-[(2S,4R)-4-[2-chloro-4-(2-methyl-pyridin-4-yl)-benzenesulfonyl]-2-(1-cyano-cyclopropylcarbamoyl)-pyrrolidine-1-carbonyl]-azetidine-1-carboxylic acid tert-butyl ester], the IC50 at human Cat L (pH 6.5) came out at 662 nM; on human Cat S (pH 6.5), 4.6 nM.

For `Cc1cc(-c2ccc(S(=O)(=O)[C@@H]3C[C@@H](C(=O)NC4(C#N)CC4)N(C(=O)C4(c5ncc(Cl)cc5F)CCN4)C3)c(Cl)c2)ccn1` (stereo partly drawn) [Example 43, (2S,4R)-1-[2-(5-Chloro-3-fluoro-pyridin-2-yl)-azetidine-2-carbonyl]-4-[2-chloro-4-(2-methyl-pyridin-4-yl)-benzenesulfonyl]-pyrrolidine-2-carboxylic acid (1-cyano-cyclopropyl)-amide hydrochloride], the IC50 on human Cat L (pH 6.5) was 86.6 nM; on human Cat S (pH 6.5) it was 2.33 nM.

Turning to `Cc1cc(-c2ccc(S(=O)(=O)[C@@H]3C[C@@H](C(=O)NC4(C#N)CC4)N(C(=O)C4(c5ncc(Br)cc5F)CCN4)C3)c(Cl)c2)ccn1` (stereo partly drawn) [Example 44, (2S,4R)-1-[2-(5-Bromo-3-fluoro-pyridin-2-yl)-azetidine-2-carbonyl]-4-[2-chloro-4-(2-methyl-pyridin-4-yl)-benzenesulfonyl]-pyrrolidine-2-carboxylic acid (1-cyano-cyclopropyl)-amide hydrochloride], the results for the IC50 against human Cat L (pH 6.5) and against human Cat S (pH 6.5) were 70.6 nM and 2.08 nM, respectively.

On to `Cn1cc(-c2ccc(S(=O)(=O)[C@@H]3C[C@@H](C(=O)NC4(C#N)CC4)N(C(=O)C4(c5ncc(Cl)cc5F)CCN4C(=O)OC(C)(C)C)C3)c(Cl)c2)cn1` (stereo partly drawn) [Example 45, tert-butyl 2-(5-chloro-3-fluoropyridin-2-yl)-2-((2S,4R)-4-(2-chloro-4-(1-methyl-1H-pyrazol-4-yl)phenylsulfonyl)-2-(1-cyanocyclopropylcarbamoyl)pyrrolidine-1-carbonyl)azetidine-1-carboxylate], for which the values for the IC50 against human Cat L (pH 6.5) and on human Cat S (pH 6.5) were 625 nM and 0.965 nM, respectively.
